{"source": "patent US20220193013A1", "about": "“Pharmaceutical Composition for Treatment or Prevention of Multiple Inflammatory Disorders” (priority 2020, published 2022)", "key": {"[1]": {"tested_on": "healthy mouse", "test": "cytokine profile and routes of administration in healthy mouse", "format": "in vivo", "conditions": "for VEGF (versus controls): p=0.001", "description": "This example provides results of a study to evaluate the effect of denatonium acetate on a healthy mouse as measured by cytokine profile and routes of administration of DA. The study groups were: (1) Vehicle group, N=12, treated with distilled water, gavage, BID; (2) DA oral low dose group, N=12, treated with DA at a dose of 23.1 mg/kg (salt weight), gavage, BID; (3) DA oral high dose group, N=12, treated with DA at a dose of 92.4 mg/kg (salt weight), gavage, BID; (4) DA IV low dose group, N=12, treated with DA at a dose of 1 mg/kg (salt weight), iv bolus, QD; (5) DA IV high dose group, N=12, treated with ARD-101 at a dose of 3 mg/kg (salt weight), iv bolus, QD."}, "[2]": {"tested_on": "DSS-induced colitis in mice", "test": "dextran sulfate sodium (DSS)-induced colitis in mice", "format": "in vivo, mouse", "excerpt": "This example provides the results of an in vivo study in a dextran sulfate sodium (DSS)-induced colitis in mice model. Inflammatory bowel diseases (IBD), mainly comprising ulcerative colitis and Crohn's Disease, are complex and multifactorial diseases with unknown etiology. To study human IBD mechanistically, a number of murine models of colitis have been developed. These models are tools to decipher underlying mechanisms of IBD pathogenesis as well as to evaluate potential therapeutics. […] Moreover, many existing IBD-approved drugs have been studied in this model to allow a comparison of new potential drug compounds as compared with existing drugs with approved IBD indications. […] mice were divided into 5 groups of 3-10 mice, provided with standard mouse chow diet ad libitum, and housed up to 5 per cage. Dexamethasone 21-phosphate disodium salt (DMS; Alfa Aesar Catalog #J64083-1G, Lot R02F035) (was used as a positive control. Hemoccult kits were obtained from Beckman (Hemoccult SENSA kit). Dextran sodium sulfate (DSS) reagent grade (MPI Catalog #160110, Lot #6046H, MW 36,000-50,000, CAS 9011-18-1) was supplemented in the water of certain groups to induced IBD-like symptoms. On day −3 treatment began prior to DSS delivery. On day 1 all mice were pre-weighed and given fresh 4-5% DSS in water every day for 5 days and water is then given for the remainder of the study to elicit disease. An additional control group was given water (no DSS) for the duration of the study (10 days). Body weight was measured daily, fecal blood status (hemoccult) was measured 3X per week, fecal consistency 3× per week and general health determined daily. Mice were sacrificed on day 10 and serum obtained for cytokine analysis and colon length and weight determined. There were two control groups of water only and DSS without drug treatment. There were two treatment groups at 69.3 mg/kg (n=10) bid and 23.1 mg/kg bid (n=10)."}, "[3]": {"tested_on": "inflammatory biomarkers in tested animals", "test": "biomarkers compared across many studies (Table 2)", "format": "in vivo", "conditions": "PO 92.4 mg/kg DA BID", "description": "The many examples provided herein show the effect of the denatonium salts on various in vivo and in vitro models of various disease indications. In addition, blood samples were taken from the tested (and control) animals and various biomarkers were measured and compared. FIGS. 70A-C show graphs comparing biomarkers across many studies. […] It should be noted that clusters of multiple biomarkers predict effectiveness for each disease indication and that grouping is shown in FIG. 71."}, "[4]": {"conditions": "high-dose of DA, no significant difference observed"}}, "data": [{"smiles": "CC(=O)[O-].CC[N+](CC)(CC(=O)Nc1c(C)cccc1C)Cc1ccccc1", "note": "[DA, denatonium acetate]", "values": [{"measurement": "biomarker (cytokine) effects", "setting": "[1]; either iv DA dose (1 or 3 mg/kg iv bolus QD)", "value": "no biomarker (cytokine) effects"}, {"measurement": "VEGF (versus controls)", "setting": "[1]; higher dose oral DA 92.4 mg/kg BID", "value": "significant decreases"}, {"measurement": "IL-9 (versus controls)", "setting": "[1]; higher dose oral DA 92.4 mg/kg BID, p=0.003", "value": "significant decreases"}, {"measurement": "GM-CSF (versus controls)", "setting": "[1]; higher dose oral DA 92.4 mg/kg BID, p=0.03", "value": "significant decreases"}, {"measurement": "KC (versus controls)", "setting": "[1]; higher dose oral DA 92.4 mg/kg BID, p=0.05", "value": "significant decreases"}, {"measurement": "side effects", "setting": "[1]; iv administration only", "value": "toxic side effects"}, {"measurement": "VEGF (versus controls)", "setting": "[1]; lower dose oral DA 23.1 mg/kg BID", "value": "significant decreases"}, {"measurement": "G-CSF (versus controls)", "setting": "[1]; lower dose oral DA 23.1 mg/kg BID, p=0.003", "value": "significant decreases"}, {"measurement": "MCP-1 (versus controls)", "setting": "[1]; lower dose oral DA 23.1 mg/kg BID, p=0.005", "value": "significant decreases"}, {"measurement": "MIP-2 (versus controls)", "setting": "[1]; lower dose oral DA 23.1 mg/kg BID, p=0.015", "value": "significant decreases"}, {"measurement": "IL-13 (versus controls)", "setting": "[1]; lower dose oral DA 23.1 mg/kg BID, p=0.03", "value": "significant decreases"}, {"measurement": "IL-1α (versus controls)", "setting": "[1]; lower dose oral DA 23.1 mg/kg BID, p=0.04", "value": "significant decreases"}, {"measurement": "body weight at day 10", "setting": "[2]; 69.3 mg/kg DA, BID, vs vehicle", "value": "significant effect against DSS-induced body weight loss"}, {"measurement": "combined fecal score during the study period", "setting": "[2]; DA 23.1 and 69.3 mg/kg bid", "value": "significant main effect"}, {"measurement": "fecal consistency score during the study period", "setting": "[2]; DA 23.1 and 69.3 mg/kg bid", "value": "significant main effect"}, {"measurement": "fecal occult blood scores during the study period", "setting": "[2]; DA 23.1 and 69.3 mg/kg bid", "value": "significant main effect"}, {"measurement": "body weight changes during the study period", "setting": "[2]; DA 23.1 and 69.3 mg/kg bid, P=0.0052", "value": "significant main effect"}, {"measurement": "colon length at day 10", "setting": "[2]; [4]", "value": "could counteract DSS-induced decrease"}, {"measurement": "colon weight at day 10", "setting": "[2]; [4]", "value": "could counteract DSS-induced decrease"}, {"measurement": "spleen weight at day 10", "setting": "[2]; high-dose of DA, no significant effect observed", "value": "trend to counteract DSS-induced spleen weight loss"}, {"measurement": "Eotaxin, Decreased Percentage Compared to Vehicle", "setting": "[3]", "value": "−18.6", "unit": "%"}, {"measurement": "G-CSF, Decreased Percentage Compared to Vehicle", "setting": "[3]", "value": "−37.5", "unit": "%"}, {"measurement": "GM-CSF, Decreased Percentage Compared to Vehicle", "setting": "[3]", "value": "−2.3", "unit": "%"}, {"measurement": "IFN-γ, Decreased Percentage Compared to Vehicle", "setting": "[3]", "value": "−37.3", "unit": "%"}, {"measurement": "IL-1α, Decreased Percentage Compared to Vehicle", "setting": "[3]", "value": "−18.2", "unit": "%"}, {"measurement": "IL-1β, Decreased Percentage Compared to Vehicle", "setting": "[3]", "value": "−12.0", "unit": "%"}, {"measurement": "IL-3, Decreased Percentage Compared to Vehicle", "setting": "[3]", "value": "−74.5", "unit": "%"}, {"measurement": "IL-5, Decreased Percentage Compared to Vehicle", "setting": "[3]", "value": "−29.1", "unit": "%"}, {"measurement": "IL-6, Decreased Percentage Compared to Vehicle", "setting": "[3]", "value": "−34.2", "unit": "%"}, {"measurement": "IL-10, Decreased Percentage Compared to Vehicle", "setting": "[3]", "value": "−92.5", "unit": "%"}, {"measurement": "IL-12 (p70), Decreased Percentage Compared to Vehicle", "setting": "[3]", "value": "−28.0", "unit": "%"}, {"measurement": "IL-17, Decreased Percentage Compared to Vehicle", "setting": "[3]", "value": "−21.2", "unit": "%"}, {"measurement": "KC, Decreased Percentage Compared to Vehicle", "setting": "[3]", "value": "−21.6", "unit": "%"}, {"measurement": "LIX, Decreased Percentage Compared to Vehicle", "setting": "[3]", "value": "−7.3", "unit": "%"}, {"measurement": "MCP-1, Decreased Percentage Compared to Vehicle", "setting": "[3]", "value": "−24.2", "unit": "%"}, {"measurement": "MIG, Decreased Percentage Compared to Vehicle", "setting": "[3]", "value": "−13.2", "unit": "%"}, {"measurement": "MIP-1α, Decreased Percentage Compared to Vehicle", "setting": "[3]", "value": "−3.4", "unit": "%"}, {"measurement": "MIP-1β, Decreased Percentage Compared to Vehicle", "setting": "[3]", "value": "−10.2", "unit": "%"}, {"measurement": "MIP-2, Decreased Percentage Compared to Vehicle", "setting": "[3]", "value": "−76.3", "unit": "%"}, {"measurement": "RANTES, Decreased Percentage Compared to Vehicle", "setting": "[3]", "value": "−20.6", "unit": "%"}]}]}
